# Legend:
# Format in all cases: binding
# [1] = system: human monoclonal antibody CRJB
# [2] = system: human monoclonal antibody CR57
# [3] = system: human monoclonal antibody CRJA
# [4] = system: human monoclonal antibody CRJB; remark: listed apart in the source
# [5] = system: human monoclonal antibody CR57; remark: listed apart in the source
# [6] = system: human monoclonal antibody CRJA; remark: listed apart in the source
sequence,measurement,setting,value
TEAENYTNFVGYVTT,Binding of CRJB to linear peptide (PEPSCAN-ELISA signal),[1],84
same,Binding of CR57 to linear peptide (PEPSCAN-ELISA signal),[2],68
same,Binding of CRJA to linear peptide (PEPSCAN-ELISA signal),[3],86
same,Binding of CRJB (10 μg/ml) to looped/cyclic peptide (PEPSCAN-ELISA signal),[4],60
same,Binding of CR57 (10 μg/ml) to looped/cyclic peptide (PEPSCAN-ELISA signal),[5],75
same,Binding of CRJA (10 μg/ml) to looped/cyclic peptide (PEPSCAN-ELISA signal),[6],76
KRKHFRPTPDACRAA,Binding of CRJB to linear peptide (PEPSCAN-ELISA signal),[1],93
same,Binding of CR57 to linear peptide (PEPSCAN-ELISA signal),[2],65
same,Binding of CRJA to linear peptide (PEPSCAN-ELISA signal),[3],65
same,Binding of CRJB (10 μg/ml) to looped/cyclic peptide (PEPSCAN-ELISA signal),[4],84
same,Binding of CR57 (10 μg/ml) to looped/cyclic peptide (PEPSCAN-ELISA signal),[5],94
same,Binding of CRJA (10 μg/ml) to looped/cyclic peptide (PEPSCAN-ELISA signal),[6],85
SVIPLVHPLADPSTV,Binding of CRJB to linear peptide (PEPSCAN-ELISA signal),[1],137
same,Binding of CR57 to linear peptide (PEPSCAN-ELISA signal),[2],72
same,Binding of CRJA to linear peptide (PEPSCAN-ELISA signal),[3],64
same,Binding of CRJB (10 μg/ml) to looped/cyclic peptide (PEPSCAN-ELISA),[4],106
same,Binding of CR57 (10 μg/ml) to looped/cyclic peptide (PEPSCAN-ELISA),[5],71
same,Binding of CRJA (10 μg/ml) to looped/cyclic peptide (PEPSCAN-ELISA),[6],75
IFTNSRGKRASKGSE,Binding of CRJB to linear peptide (PEPSCAN-ELISA signal),[1],125
same,Binding of CR57 to linear peptide (PEPSCAN-ELISA signal),[2],77
same,Binding of CRJA to linear peptide (PEPSCAN-ELISA signal),[3],97
same,Binding of CRJB (10 μg/ml) to looped/cyclic peptide (PEPSCAN-ELISA signal),[4],75
same,Binding of CR57 (10 μg/ml) to looped/cyclic peptide (PEPSCAN-ELISA signal),[5],85
same,Binding of CRJA (10 μg/ml) to looped/cyclic peptide (PEPSCAN-ELISA signal),[6],88
RSLHSRVFPSGKCSG,Binding of CRJB to linear peptide (PEPSCAN-ELISA signal),[1],141
same,Binding of CR57 to linear peptide (PEPSCAN-ELISA signal),[2],87
same,Binding of CRJA to linear peptide (PEPSCAN-ELISA signal),[3],125
same,Binding of CRJB (10 μg/ml) to looped/cyclic peptide (PEPSCAN-ELISA signal),[4],93
same,Binding of CR57 (10 μg/ml) to looped/cyclic peptide (PEPSCAN-ELISA signal),[5],102
same,Binding of CRJA (10 μg/ml) to looped/cyclic peptide (PEPSCAN-ELISA signal),[6],123
IYTILDKLGPWSPID,Binding of CRJB to linear peptide (PEPSCAN-ELISA signal),[1],97
same,Binding of CR57 to linear peptide (PEPSCAN-ELISA signal),[2],44
same,Binding of CRJA to linear peptide (PEPSCAN-ELISA signal),[3],83
same,Binding of CRJB (10 μg/ml) to looped/cyclic peptide (PEPSCAN-ELISA signal),[4],58
same,Binding of CR57 (10 μg/ml) to looped/cyclic peptide (PEPSCAN-ELISA signal),[5],66
same,Binding of CRJA (10 μg/ml) to looped/cyclic peptide (PEPSCAN-ELISA signal),[6],78
KHFRPTPDACRAAYN,Binding of CRJB to linear peptide (PEPSCAN-ELISA signal),[1],112
same,Binding of CR57 to linear peptide (PEPSCAN-ELISA signal),[2],73
same,Binding of CRJA to linear peptide (PEPSCAN-ELISA signal),[3],85
same,Binding of CRJB (10 μg/ml) to looped/cyclic peptide (PEPSCAN-ELISA signal),[4],72
same,Binding of CR57 (10 μg/ml) to looped/cyclic peptide (PEPSCAN-ELISA signal),[5],70
same,Binding of CRJA (10 μg/ml) to looped/cyclic peptide (PEPSCAN-ELISA signal),[6],41
DYRWLRTVKTTKESL,Binding of CRJB to linear peptide (PEPSCAN-ELISA signal),[1],111
same,Binding of CR57 to linear peptide (PEPSCAN-ELISA signal),[2],54
same,Binding of CRJA to linear peptide (PEPSCAN-ELISA signal),[3],55
same,Binding of CRJB (10 μg/ml) to looped/cyclic peptide (PEPSCAN-ELISA signal),[4],49
same,Binding of CR57 (10 μg/ml) to looped/cyclic peptide (PEPSCAN-ELISA signal),[5],46
same,Binding of CRJA (10 μg/ml) to looped/cyclic peptide (PEPSCAN-ELISA signal),[6],45
VLIPEMQSSLLQQHM,Binding of CRJB to linear peptide (PEPSCAN-ELISA signal),[1],104
same,Binding of CR57 to linear peptide (PEPSCAN-ELISA signal),[2],92
same,Binding of CRJA to linear peptide (PEPSCAN-ELISA signal),[3],78
same,Binding of CRJB (10 μg/ml) to looped/cyclic peptide (PEPSCAN-ELISA),[4],85
same,Binding of CR57 (10 μg/ml) to looped/cyclic peptide (PEPSCAN-ELISA),[5],114
same,Binding of CRJA (10 μg/ml) to looped/cyclic peptide (PEPSCAN-ELISA),[6],92
GVFFNGIILGPDGNV,Binding of CRJB to linear peptide (PEPSCAN-ELISA signal),[1],116
same,Binding of CR57 to linear peptide (PEPSCAN-ELISA signal),[2],58
same,Binding of CRJA to linear peptide (PEPSCAN-ELISA signal),[3],84
same,Binding of CRJB (10 μg/ml) to looped/cyclic peptide (PEPSCAN-ELISA),[4],85
same,Binding of CR57 (10 μg/ml) to looped/cyclic peptide (PEPSCAN-ELISA),[5],57
same,Binding of CRJA (10 μg/ml) to looped/cyclic peptide (PEPSCAN-ELISA),[6],68

# From patent US20060263802A1 (priority 2003, published 2006)
